# Source: patent US20100035848A1, “THERAPY FOR DISORDERS OF THE PROXIMAL DIGESTIVE TRACT” (priority 2008, published 2010)
# Columns and labels:
# gastric PGE2 synthesis = test: Acute indomethacin-induced gastric toxicity in rats: gastric PGE2 synthesis; format: in vivo, rat; details: indomethacin 20 mg/kg p.o.
# Protocol: A study was conducted to determine whether GL1001 would inhibit acute NSAID (indomethacin)-induced gastric toxicity in a rat model (Wallace et al. (1998) Gastroenterol. 115:101-109). Several modes of treatment with GL1001 or vehicle were employed, which included administration via drinking water, oral administration and subcutaneous administration as shown in Table 4. Irrespective of the route of drug or vehicle administration, male Wistar rats were deprived of food for 16 h prior to oral administration of 20 mg/kg indomethacin (Sigma) or vehicle (5% w/v sodium bicarbonate; 1 ml/kg). Three hours later the rats were sacrificed and the severity of gastric damage was blindly scored. This involved measurement of the lengths (in mm) of all hemorrhagic erosions and summing these to give a “gastric damage score” for each stomach. Samples of the stomach were taken for measurement of prostaglandin E2 (PGE2) synthesis as described by Wallace et al. (1998), supra, and myeloperoxidase activity as described by Souza et al. (2003) Am. J. Physiol. 285:[…]-61. Myeloperoxidase is an enzyme found in all cells of mycloid origin, but particularly enriched within neutrophils. It is therefore used as a biochemical marker of granulocyte infiltration into tissue. Each group consisted of 6 rats. As a negative control, one group received vehicle pretreatments (in the drinking water and by oral gavage) and then received vehicle instead of indomethacin. […] [table] In the experiments where GL1001 (or vehicle) was added to drinking water, the rats were provided with the modified drinking water for 2 days prior to administration of indomethacin (or vehicle). This included the period when the rats were deprived of food. GL1001 was prepared in 0.1M citrate buffer before being added to the drinking water. Based on average water consumption by rats, this was aimed at providing a daily dose of GL1100 of 1200 mg/kg (water consumption was monitored for several days prior to initiation of the study). Oral or subcutaneous administration of GL1001 (or vehicle) was performed 30 minutes prior to administration of indomethacin. Data are expressed as mean±SEM. When two groups of data were compared, a Student's t-test was used. When more than two groups of data were compared, a one-way analysis of variance followed by the Newman-Keuls test was used. An associated probability of less than 5% was considered statistically significant.
# myeloperoxidase = test: Acute indomethacin-induced gastric toxicity in rats: gastric myeloperoxidase activity; format: in vivo, rat; details: Group J: PGE2 100 μg/kg p.o., indomethacin 20 mg/kg p.o.; vehicle Group I 29.5 ± 2.8
# Protocol: A study was conducted to determine whether GL1001 would inhibit acute NSAID (indomethacin)-induced gastric toxicity in a rat model (Wallace et al. (1998) Gastroenterol. 115:101-109). Several modes of treatment with GL1001 or vehicle were employed, which included administration via drinking water, oral administration and subcutaneous administration as shown in Table 4. Irrespective of the route of drug or vehicle administration, male Wistar rats were deprived of food for 16 h prior to oral administration of 20 mg/kg indomethacin (Sigma) or vehicle (5% w/v sodium bicarbonate; 1 ml/kg). Three hours later the rats were sacrificed and the severity of gastric damage was blindly scored. This involved measurement of the lengths (in mm) of all hemorrhagic erosions and summing these to give a “gastric damage score” for each stomach. Samples of the stomach were taken for measurement of prostaglandin E2 (PGE2) synthesis as described by Wallace et al. (1998), supra, and myeloperoxidase activity as described by Souza et al. (2003) Am. J. Physiol. 285:[…]-61. Myeloperoxidase is an enzyme found in all cells of mycloid origin, but particularly enriched within neutrophils. […] Based on average water consumption by rats, this was aimed at providing a daily dose of GL1100 of 1200 mg/kg (water consumption was monitored for several days prior to initiation of the study). […] Data are expressed as mean±SEM. […]
# [1] = test system: diclofenac-induced gastric damage; test: Acute diclofenac-induced gastric toxicity in rats: gastric damage score; format: in vivo, rat; details: for Gastric damage score: Group D: PGE2 100 μg/kg oral 30 min before diclofenac 50 mg/kg oral, 3 h, Group B 17.80 ± 5.08
# Protocol: (§1) Male Wistar rats were deprived of food but not water for 16 hours prior to oral administration of GL1001 90 mg/kg, incubated for 30 minutes and then given oral diclofenac 50 mg/kg. Each group consisted of 6 rats. As a negative control, one group received vehicle pretreatment, and then received vehicle instead of diclofenac. A positive control group received PGE2 100 μg/kg orally, 30 minutes prior to administration of diclofenac. All treatments were administered by oral gavage.
# (§2) Three hours after diclofenac treatment, all animals were sacrificed and stomachs were removed and imaged to determine the severity of gastric damage. Additionally, stomach tissue samples were taken to assess disease activity and pharmacodynamic effects. Gastric damage scores were determined from photographic images (Ma & Wallace (2003) Am. J. Physiol. Gastrointest. Liver Physiol. 279; 341-346). Removed stomachs were opened along the greater curvature, pinned out on a wax block, and photographed along a 25 mm ruler reference with a digital 35 mm camera. The lesion area was then determined using enlarged images and computer software (www.scioncorp.co/pages/scion_image_windows.htm) that allows superimposed drawing of the perimeter of a wound and calculation of the area based on the ruler reference. Stomach samples (excluding forestomach) were used for measurements of PGE2 concentration, MPO activity and ACE2 activity. PRE2 determinations are used in this study as a hiomarker of diclofenac effect since its mechanism of action involves inhibition of cyclooxygenase (COX-2 and COX-1) enzymes which in turn results in inhibition of PGE2 synthesis. Concentration of PGE2 from stomach tissue samples was performed as described by Souza et al. (2003), supra, and quantification was obtained by LC-MS. MTO, an enzyme found in abundance in granulocytes, is used as a biochemical marker of tissue inflammation. When tissues undergo inflammatory processes, granulocytes are recruited to the site of inflammation and infiltrate the affected tissue giving rise to increase MPO activity (Souza et al. (2003), supra). Last, the extent of inhibition of ACE2 activity was determined to establish whether GL1001 was effective in inhibiting its ACE2 target in stomach tissues. The ACE2 activity assay is similar to the method of Vickers et al. (2002) J. Biol. Chem. 277:14838-14843, wherein purified recombinant ACE2 (100 pM) and a quenched fluorescent substrate (100-150 μM APK (7-methoxycoumarin-4-yl)acetyl-Ala-Pro-Lys (2,4-dinitrophenyl)) are used in end-point fluorescence reactions (excitation 320 nm, emission 405 nm). For stomach ACE2 measurements, tissues were homogenized in the presence of a general protease inhibitor (PMSF) and specific ACE inhibitors. […]
# (§3) Data are expressed as means with standard errors. […]
# gastric PGE2 = test: Acute diclofenac-induced gastric toxicity in rats: gastric PGE2 concentration; format: in vivo, rat
# Protocol: as §1
# as §2, with “PRE2 determinations are used in this study as a hiomarker of diclofenac effect since its mechanism of action involves inhibition of cyclooxygenase (COX-2 and COX-1) enzymes which in turn results in inhibition of PGE2 synthesis.” left out, “MTO, an enzyme found in abundance in granulocytes, is used as a biochemical marker of tissue inflammation. When tissues undergo inflammatory processes, granulocytes are recruited to the site of inflammation and infiltrate the affected tissue giving rise to increase MPO activity (Souza et al. (2003), supra).” left out, “nm).” for “nm). For stomach ACE2 measurements, tissues were homogenized in the presence of a general protease inhibitor (PMSF) and specific ACE inhibitors.”
# as §3
# ACE2 = molecular target: T1, ACE2 (Rattus norvegicus, UniProt Q5EGZ1); test: Acute diclofenac-induced gastric toxicity in rats: ACE2 activity in stomach tissue; format: in vivo
# T1 construct: from tissue; host or cells: rat stomach (excluding forestomach) homogenate
# T1 sequence (Q5EGZ1 18-805): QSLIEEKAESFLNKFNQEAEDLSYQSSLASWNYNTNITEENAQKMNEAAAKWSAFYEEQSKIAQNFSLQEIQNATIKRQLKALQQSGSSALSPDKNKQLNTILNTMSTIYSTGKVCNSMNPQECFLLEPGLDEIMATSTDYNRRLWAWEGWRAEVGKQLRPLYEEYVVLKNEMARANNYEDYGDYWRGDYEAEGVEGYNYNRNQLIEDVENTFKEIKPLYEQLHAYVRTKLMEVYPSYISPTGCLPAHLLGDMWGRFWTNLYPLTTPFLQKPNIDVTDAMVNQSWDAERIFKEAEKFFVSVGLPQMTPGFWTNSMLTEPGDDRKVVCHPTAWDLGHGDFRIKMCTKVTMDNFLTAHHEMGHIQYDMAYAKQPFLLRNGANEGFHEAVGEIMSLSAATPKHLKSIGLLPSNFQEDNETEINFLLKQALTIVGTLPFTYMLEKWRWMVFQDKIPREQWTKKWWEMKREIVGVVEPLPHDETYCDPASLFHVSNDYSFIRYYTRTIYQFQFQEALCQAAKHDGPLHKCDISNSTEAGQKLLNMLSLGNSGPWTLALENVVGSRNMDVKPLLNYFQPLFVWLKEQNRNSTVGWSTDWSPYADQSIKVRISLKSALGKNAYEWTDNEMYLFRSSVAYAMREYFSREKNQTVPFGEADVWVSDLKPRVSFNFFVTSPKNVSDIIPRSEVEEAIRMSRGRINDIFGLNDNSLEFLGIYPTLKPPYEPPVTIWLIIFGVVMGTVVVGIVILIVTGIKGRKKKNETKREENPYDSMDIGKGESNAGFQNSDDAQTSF
# Protocol: as §1
# as §2, with “PRE2 determinations are used in this study as a hiomarker of diclofenac effect since its mechanism of action involves inhibition of cyclooxygenase (COX-2 and COX-1) enzymes which in turn results in inhibition of PGE2 synthesis.” left out, “MTO, an enzyme found in abundance in granulocytes, is used as a biochemical marker of tissue inflammation. When tissues undergo inflammatory processes, granulocytes are recruited to the site of inflammation and infiltrate the affected tissue giving rise to increase MPO activity (Souza et al. (2003), supra).” left out, “nm).” for “nm). For stomach ACE2 measurements, tissues were homogenized in the presence of a general protease inhibitor (PMSF) and specific ACE inhibitors.”
# as §3
# duodenal ulcer = details: administered to treat heart failure; Gidaiatov et al. (2000); cited from earlier work
# [2] = test system: gastric mucosal erosions, dyspeptic symptoms; details: cited from earlier work
compound,measurement,setting,value
"CCCCC[C@H](O)/C=C/[C@H]1[C@H](O)CC(=O)[C@@H]1C/C=C\CCCC(=O)O [PGE2, prostaglandin E2]",Gastric PGE2 synthesis,"gastric PGE2 synthesis; Group J: PGE2 100 μg/kg p.o., vehicle Group I 6.08 ± 1.00",6.10 ± 1.00 ng/mg
same,Gastric MPO activity,myeloperoxidase,22.8 ± 2.2 U/mg
same,Gastric damage score,[1],0
same,Gastric damage score,[1]; listed as PCGE2,total absence of gastric lesions
same,Gastric PGE2 concentration,gastric PGE2; Group D: PGE2 100 μg/kg oral before diclofenac 50 mg/kg,0 pg/mg
same,Gastric ACE2 activity,"ACE2; Group D: PGE2 100 μg/kg oral before diclofenac 50 mg/kg, Group B 880 ± 39",688 ± 30 pmol/mg
O=C(O)Cc1ccccc1Nc1c(Cl)cccc1Cl [diclofenac],mean gastric damage score,"[1]; diclofenac 50 mg/kg oral after vehicle pretreatment, 3 h (Group B)",17.8
same,PGE2 levels in stomach tissue,"gastric PGE2; all treatment groups that received diclofenac 50 mg/kg oral, vehicle Group A 43.22 pg/mg",no detectable
same,Activity of ACE2 in stomach tissue,"ACE2; diclofenac-treated Group B vs Group A, p=0.052",trend towards up-regulation
CCOC(=O)[C@H](CCc1ccccc1)N[C@@H](C)C(=O)N1CCC[C@H]1C(=O)O [enalapril],"healing of duodenal ulcer, patients treated",duodenal ulcer,87%
same,percentage of patients with dyspeptic symptoms,"[2]; hypertensive patients, decreased from 78% upon treatment",40%
same,number of patients having gastric mucosal erosions,"[2]; of 30 hypertensive patients, decreased from 11 upon treatment",4
"COc1ccc2c(c1)c(CC(=O)O)c(C)n2C(=O)c1ccc(Cl)cc1 [indomethacin, reference compound]",reduction of gastric PGE2 synthesis,"gastric PGE2 synthesis; irrespective of pretreatment, vehicle only Group E 82 ng/mg",> 92%
